Test results as given in US10098913B2, “Composition of stem cells having highly expressed FAS ligand” (UNIVERSITY OF SOUTHERN CALIFORNIA, priority 2013, dated 2018).
Entries after “also recorded” stand apart in the source; their conditions may differ.

Legend:
Fas-L = Fas-L expression in MSCs (western blotting); assay type: cell-based, mice
Description: Bone marrow cells were flushed from the bone cavity of femurs and tibias of B6 mice (C57BL/6 J) with about 2% heat inactivated fetal bovine serum (Equitech-Bio, Kerrville, Tex., USA) in PBS, and MSCs positive for CD73, CD90, CD105, CD146, CD166, Sca-1 and SSEA-4, but negative for CD11b, CD31, CD34 and CD45, were obtained as previously described by Liu et al. “Mesenchymal stem cell-based tissue regeneration is governed by recipient T lymphocytes via IFN-γ and TNF-α” Nat Med 2011, 17:1594-1601. The entire content of this publication is incorporated herein by reference. The cells with MSC character were cultured with alpha minimum essential medium (Invitrogen) supplemented with about 20% fetal bovine serum and 2 mM L-glutamine (Invitrogen) in a humidified atmosphere of about 95% air and about 5% CO2 at about 37° C. for about 3 days before co-culture. See Oyajobi et al. “Dual effects of macrophage inflammatory protein-1alpha on osteolysis and tumor burden in the murine 5TGM1 model of myeloma bone disease” Blood 2003, 102:311-319. The entire content of this publication is incorporated herein by reference. Additionally, MSCs, which had no Fas-L, were isolated from generalized lymphoproliferative disease (gld) mice for use in comparative experiments. B6 and gld mice in the same background ([…]) were purchased from the Jackson Laboratory. […]

5TGM1 MM cells [1] = test: 5TGM1 multiple myeloma model mice: survival and cancroid pearls; assay type: in vivo
Protocol: A 5TGM1 MM model was conducted in weight-matched, 8-week-old to 10-week-old female bg-nu/nu-xid mice from the Jackson Lab (Bar Harbor, Me., USA). The use of animals for research was approved through the Institutional Ethics Committee/Institutional Review Board of the University of Southern California (protocol #10941). The mice were housed in isolator cages, and autoclaved chow and acidified water were provided ad libitum. Disseminated MM was induced through the intravenous inoculation of about 6×10^6 5TGM1 cells in about 200 μl PBS in bg-nu/nu-xid mice through the tail vein (about 6×10^6/10 g body weight). After tumor cell inoculation, multiple MM model mice were randomized to receive the injection of either MSCs (once, about 1×10^6 MSCs/10 g body weight) via the tail vein (MSC group) or […] (L-PAM; weekly, about 50 μg/10 g body weight) in the abdominal cavity (L-PAM group), as shown in FIG. 1A. See Akiyama et al. “Mesenchymal-stem-cell-induced immunoregulation involves FAS-ligand/FAS-mediated T cell apoptosis” Cell Stem Cell 2012, 10:544-555. The entire content of this publication is incorporated herein by reference. L-Phenylalanine mustard, or L-PAM, otherwise known as melphalan, is used as the standard treatment in older MM patients. See Musto P. et al. “Melphalan: old and new uses of a still master drug for multiple myeloma” Expert Opin Investig Drugs 2007, 16:1467-1487. The entire content of this publication is incorporated herein by reference. MM model mice with no treatment served as the positive control (MM group). Original nude mice with no treatment served as the negative control (Control group). The 6-week survival rates of the mice in different groups were compared. After about 4 weeks of feeding, the cancroid pearls in the neck, tail root and abdominal cavity of the mice in different groups were identified for analysis. […]

5TGM1 MM cells [2] = test: Microcomputed tomography of bone density in MM model mice; assay type: in vivo; settings: microcomputed tomography after about 4 weeks; P<0.05
Protocol: A 5TGM1 MM model was conducted in weight-matched, 8-week-old to 10-week-old female bg-nu/nu-xid mice from the Jackson Lab (Bar Harbor, Me., USA). The use of animals for research was approved through the Institutional Ethics Committee/Institutional Review Board of the University of Southern California (protocol #10941). The mice were housed in isolator cages, and autoclaved chow and acidified water were provided ad libitum. Disseminated MM was induced through the intravenous inoculation of about 6×10^6 5TGM1 cells in about 200 μl PBS in bg-nu/nu-xid mice through the tail vein (about 6×10^6/10 g body weight). […]
The cross-sectional volumetric bone mineral density was measured in right femur diaphysis of the mice in each group after about 4 weeks of feeding (for each group, n=6). […] Using two-dimensional images, a region of interest in secondary spongiosa was manually drawn near the endocortical surface, and cancellous bone morphometric parameters including the bone volume relative to the tissue volume (percentage) and the trabecular thickness (millimeters) were assessed. A trained observer blinded to the composition of the different groups and treatments received analyzed the number and surface area of radiolucent lesions.

5TGM1 MM cells [3] = test: MM cell metastasis in lungs and kidneys of MM model mice; assay type: in vivo; settings: after about 4 weeks
Protocol: A 5TGM1 MM model was conducted in weight-matched, 8-week-old to 10-week-old female bg-nu/nu-xid mice from the Jackson Lab (Bar Harbor, Me., USA). The use of animals for research was approved through the Institutional Ethics Committee/Institutional Review Board of the University of Southern California (protocol #10941). The mice were housed in isolator cages, and autoclaved chow and acidified water were provided ad libitum. Disseminated MM was induced through the intravenous inoculation of about 6×10^6 5TGM1 cells in about 200 μl PBS in bg-nu/nu-xid mice through the tail vein (about 6×10^6/10 g body weight). After tumor cell inoculation, multiple MM model mice were randomized to receive the injection of either MSCs (once, about 1×10^6 MSCs/10 g body weight) via the tail vein (MSC group) or […] (L-PAM; weekly, about 50 μg/10 g body weight) in the abdominal cavity (L-PAM group), as shown in FIG. 1A. See Akiyama et al. “Mesenchymal-stem-cell-induced immunoregulation involves FAS-ligand/FAS-mediated T cell apoptosis” Cell Stem Cell 2012, 10:544-555. The entire content of this publication is incorporated herein by reference. L-Phenylalanine mustard, or L-PAM, otherwise known as melphalan, is used as the standard treatment in older MM patients. […]

[4] = neck, tail root and abdominal cavity, after about 4 weeks, versus MM group

CC(=O)Oc1ccccc1C(=O)O [Aspirin, aspirin]
expression of Fas-L in MSCs after aspirin treatment (Fas-L): enhanced expression of Fas-L in MSCs

N[C@@H](Cc1ccc(N(CCCl)CCCl)cc1)C(=O)O [L-PAM, L-Phenylalanine mustard]
6-week survival rate (5TGM1 MM cells [1]; MM model mice, MSCs once via tail vein, L-PAM weekly in abdominal cavity, versus untreated MM group, P<0.05): prolonged survival compared with the MM group; also recorded: higher than the MM group
number of cancroid pearls (5TGM1 MM cells [1]; [4]): no significant difference
size of cancroid pearls (5TGM1 MM cells [1]; [4]): smaller compared with the MM group
bone density (BD) in lumbus and collum femoris (5TGM1 MM cells [2]): MM group was much lower than those of the MSC group, the L-PAM group
metastasis rate in the kidney tissue (5TGM1 MM cells [3]): no significant difference
